Key:
Type in all cases: in vivo
[1] = tested on: Zoysiagrass (Agrostis stolonifera); assay: Zoysiagrass cultivated on agar medium added with AHX; settings: agar medium with 1 mM AHX, 30 days, vs control section
[2] = tested on: Rice (Oryza sativa); assay: Rice cultivated in culture fluid added with AHX; settings: culture fluid with 0.2 mM AHX, 14 days, vs control section
[3] = tested on: rice (Nipponbare) (Oryza sativa L. cv. Nipponbare); assay: Influence of AHX or AOH on rice seedlings in test tube culture fluid (Example 6); settings: 50, 200 or 1000 μM in culture fluid, 28° C., one week, FIG. 4
Procedure: Sterilized seeds of rice (Nipponbare) (Oryza sativa L. cv. Nipponbare) were allowed to sprout at 28° C. in three days. The sprouted seeds (four seeds per test tube) were cultivated in a test tube, in which a control culture fluid or a culture fluid to which AHX or AOH was added to different concentrations and was placed, at 28° C. for a week. AOH that was produced according to the method of Example 5 was used. The control culture fluid comprises 0.5 mM of NH4NO3, 0.3 mM of Na2HPO4, 0.15 mM of K2SO4, 0.2 mM of MgCl2, 0.1 mM of CaCl2, 23 μM of Fe-ethylenediaminetetraacetic acid (Fe-EDTA), 25 μM of H3BO3, 4.5 μM of MnSO4, 0.15 μM of CuSO4, 0.35 μM of ZnSO4, and 0.05 μM of Na2MoO4. As for the culture fluids containing AHX or AOH, AHX or AOH is added to the above described control culture fluids such that the final concentration becomes 50 μM, 200 μM or 1000 μM. The culture fluid was replaced with new culture fluid every other day. After cultivation, the length of shoots and roots was measured.

[4] = tested on: rice (Nipponbare) (Oryza sativa L. cv. Nipponbare); assay: Influence of AOH and 3-methyl-AOH on rice seedlings in test tube culture fluid (Example 12); settings: 0.2 mM in culture fluid, 28° C., one week; for Extension of roots: FIG. 8
Procedure: Sterilized seeds of rice (Nipponbare) (Oryza sativa L. cv. Nipponbare) were allowed to sprout at 28° C. in three days. The sprouted seeds (four seeds per test tube) were cultivated in a test tube, in which a control culture fluid, a culture fluid to which 0.2 mM of AOH was added, or a culture fluid to which 0.2 mM of 3-methyl-AOH was added and was placed, at 28° C. for a week. The control culture fluid comprises 0.5 mM of NH4NO3, 0.3 mM of Na2HPO4, 0.15 mM of K2SO4, 0.2 mM of MgCl2, 0.1 mM of CaCl2, 23 μM of Fe-ethylenediaminetetraacetic acid (Fe-EDTA), 25 μM of H3BO3, 4.5 μM of MnSO4, 0.15 μM of CuSO4, 0.35 μM of ZnSO4, and 0.05 μM of Na2MoO4. The culture fluid was replaced with new culture fluid every other day. After cultivation, the length of shoots and roots was measured. […] (In FIG. 8, “*” indicates P value <0.05, and “**” indicates P value <0.01. n=16.). In contrast, 3-methyl-AOH gave no influence on extension of the shoots.

[5] = tested on: rice (Nipponbare) (Oryza sativa L. cv. Nipponbare); assay: Influence of AOH on soil cultivation of rice (pot cultivation)
Procedure: Rice (Nipponbare) (Oryza sativa L. cv. Nipponbare) was sown on Apr. 29, 2011, and each of grown seedlings was transplanted to a pot (1/5000a pot) filled with soil which contains a fertilizer comprising N (1440 mg), P2O5 (12 mg), K2O (760 mg) and CaO (806 mg) on June 7th, and was soil-cultivated in a greenhouse (28° C.) under any one of seven types of cultivation conditions of the following (1) to (7) until September 24th. Supply of water was performed by providing two liter of tap water or tap water to which AOH was added every week (see below).
(1) Tap water was provided during pot cultivation.
(2) Tap water to which AOH was added such that the final concentration became 50 μM was provided for two weeks (from June 7th to June 20th) in the planting stage. Tap water was provided in the other period.
(3) Tap water to which AOH was added such that the final concentration became 50 μM was provided for two weeks (from July 4th to July 17th) in the tillering stage. Tap water was provided in the other period.
(4) Tap water added to which AOH was added such that the final concentration became 50 μM was provided for two weeks (from July 25th to August 7th) in the topdressing stage for panicle formation. Tap water was provided in the other period.
(5) Tap water added to which AOH was added such that the final concentration became 50 μM was provided for two weeks (from August 15th to August 28th) in the topdressing stage for ripening. Tap water was provided in the other period. […]
(7) Tap water to which AOH was added such that the final concentration became 50 μM was provided during pot cultivation.
Brown rice and plant bodies soil-cultivated were dried at 30° C. for 15 days, and brown rice weight (both of weight per plant and weight per 100 brown rice grains), panicle length, culm length, number of panicles, number of tillers, and aerial part weight were measured.

[6] = tested on: rice (Nipponbare) (Oryza sativa L. cv. Nipponbare); assay: Influence of AOH on soil cultivation of rice (field cultivation)
Procedure: Rice (Nipponbare) (Oryza sativa L. cv. Nipponbare) was used and cultivated in a field as follows. As cultivation conditions, five sections of (1) to (5) were set.
Rice (Nipponbare) (Oryza sativa L. cv. Nipponbare) was sown in a nursery box on Apr. 29, 2011, and provided with a total of 15 liters of tap water or tap water to which AOH was added for two weeks from May 24th while raising seedling in the nursery box. On June 7th, each of grown seedlings was transplanted to the field. The planting density was set to the interrow space of 30 cm and the planting distance of 15 cm (three reproductions of 3×3.3 m per one section). As basal fertilizer, 50 L of tap water or tap water to which AOH was added per section was supplied on June 7th. The cultivation was continued, and as topdressing for panicle formation, 50 L of tap water or tap water to which AOH was added per section was supplied on July 25th. Plant bodies were harvested on October 12th.
(1) Tap water was used as the culture fluid during seedling raising, the basal fertilizer, and the topdressing for panicle formation.
(2) Tap water to which AOH was added such that the final concentration became 0.5 mM was provided as the culture fluid during seedling raising. Tap water was used as the basal fertilizer, and the topdressing for panicle formation.
(3) Tap water to which AOH was added such that the final concentration became 1.0 mM was provided as the culture fluid during seedling raising. Tap water was used as the basal fertilizer and the topdressing for panicle formation.
(4) Tap water to which AOH was added such that the final concentration became 0.5 mM was provided as the basal fertilizer. Tap water was used as the culture fluid during seedling raising and the topdressing for panicle formation.
(5) Tap water to which AOH was added such that the final concentration became 0.5 mM was provided as the topdressing for panicle formation. Tap water was used as the culture fluid during seedling raising and the basal fertilizer.
Brown rice was dried, and total brown rice weight, hull weight, non-sieved brown rice weight and sieved brown rice, per 10 plant bodies, and thousand kernel weight were measured.

[7] = 50 μM AOH, topdressing stage for panicle formation
[8] = 50 μM AOH, topdressing stage for ripening
[9] = applying AOH all the time, vs control
[10] = 0.5 mM AOH during seedling raising
[11] = 0.5 mM AOH, topdressing at panicle formation
[12] = 1.0 mM AOH during seedling raising
[13] = per 10 plants, 0.5 mM AOH as basal fertilizer
[14] = per 10 plants, 0.5 mM AOH during seedling raising
[15] = per 10 plants, 0.5 mM AOH, topdressing at panicle formation
[16] = per 10 plants, 1.0 mM AOH during seedling raising

O=c1[nH]nnc2[nH]cnc12 [AHX, 7H-imidazo[4,5-d][1,2,3]triazin-4(3H)-one]
Extension of shoots [1]: clearly promoted
Extension of shoots [2]: clearly promoted
Extension of shoots and roots [3]: promoted extension of shoots and roots concentration-dependently

Cn1nnc2[nH]c(=O)[nH]c2c1=O [3-methyl-AOH, 3-methyl-3H-imidazo[4,5-d][1,2,3]triazin-4,6(5H,7H)-dione]
Extension of shoots [4]: no influence
Extension of roots [4]: had extension activity for roots

O=c1[nH]c2nn[nH]c(=O)c2[nH]1 [AOH, 3H-imidazo[4,5-d][1,2,3]triazin-4,6(5H,7H)-dione]
Extension of roots [4]: had extension activity for roots
Aerial part ([5]; 5 μM AOH, all the time): 151 ± 6.19 g
Brown rice weight (g/100 grains) ([5]; 5 μM AOH, all the time): 2.13 ± 0.09 g/100 grains
Brown rice weight (g/plant) ([5]; 5 μM AOH, all the time): 59.3 ± 2.27 g/plant
Culm length ([5]; 5 μM AOH, all the time): 89.7 ± 6.40 cm
Increasing rate of aerial part relative to control ([5]; 5 μM AOH, all the time): 30%
Increasing rate of brown rice weight per plant relative to control ([5]; 5 μM AOH, all the time): 42%
Increasing rate of number of panicles relative to control ([5]; 5 μM AOH, all the time): 24%
Number of tillers ([5]; 5 μM AOH, all the time): 37.9 ± 3.71
Panicle length ([5]; 5 μM AOH, all the time): 24.5 ± 2.24 cm
number of panicles ([5]; 5 μM AOH, all the time): 32.8 ± 2.48
Aerial part ([5]; 50 μM AOH, all the time): 147 ± 9.63 g
Brown rice weight (g/100 grains) ([5]; 50 μM AOH, all the time): 2.15 ± 0.16 g/100 grains
Brown rice weight (g/plant) ([5]; 50 μM AOH, all the time): 58.2 ± 3.76 g/plant
Culm length ([5]; 50 μM AOH, all the time): 92.3 ± 5.64 cm
Increasing rate of aerial part relative to control ([5]; 50 μM AOH, all the time): 27%
Increasing rate of brown rice weight per plant relative to control ([5]; 50 μM AOH, all the time): 40%
Increasing rate of number of panicles relative to control ([5]; 50 μM AOH, all the time): 23%
Number of tillers ([5]; 50 μM AOH, all the time): 35.7 ± 4.15
Panicle length ([5]; 50 μM AOH, all the time): 24.4 ± 1.96 cm
number of panicles ([5]; 50 μM AOH, all the time): 32.7 ± 4.03
Aerial part ([5]; 50 μM AOH, planting stage): 125 ± 21.2 g
Brown rice weight (g/100 grains) ([5]; 50 μM AOH, planting stage): 2.11 ± 0.07 g/100 grains
Brown rice weight (g/plant) ([5]; 50 μM AOH, planting stage): 46.6 ± 9.43 g/plant
Culm length ([5]; 50 μM AOH, planting stage): 97.1 ± 12.1 cm
Increasing rate of brown rice weight per plant relative to control ([5]; 50 μM AOH, planting stage): 12%
Number of tillers ([5]; 50 μM AOH, planting stage): 34.6 ± 2.70
Panicle length ([5]; 50 μM AOH, planting stage): 23.5 ± 1.61 cm
number of panicles ([5]; 50 μM AOH, planting stage): 27.8 ± 4.26
Aerial part ([5]; 50 μM AOH, tillering stage): 112 ± 30.0 g
Brown rice weight (g/100 grains) ([5]; 50 μM AOH, tillering stage): 2.12 ± 0.12 g/100 grains
Brown rice weight (g/plant) ([5]; 50 μM AOH, tillering stage): 42.3 ± 12.2 g/plant
Culm length ([5]; 50 μM AOH, tillering stage): 94.5 ± 4.63 cm
Number of tillers ([5]; 50 μM AOH, tillering stage): 30.9 ± 3.67
Panicle length ([5]; 50 μM AOH, tillering stage): 26.2 ± 1.03 cm
number of panicles ([5]; 50 μM AOH, tillering stage): 23.0 ± 5.44
Aerial part [5, 7]: 134 ± 16.5 g
Brown rice weight (g/100 grains) [5, 7]: 2.12 ± 0.07 g/100 grains
Brown rice weight (g/plant) [5, 7]: 53.7 ± 3.59 g/plant
Culm length [5, 7]: 90.2 ± 6.15 cm
Increasing rate of brown rice weight per plant relative to control [5, 7]: 29%
Number of tillers [5, 7]: 31.6 ± 3.60
Panicle length [5, 7]: 24.5 ± 1.61 cm
number of panicles [5, 7]: 30.5 ± 4.50
Aerial part [5, 8]: 131 ± 13.3 g
Brown rice weight (g/100 grains) [5, 8]: 2.18 ± 0.08 g/100 grains
Brown rice weight (g/plant) [5, 8]: 53.2 ± 2.61 g/plant
Culm length [5, 8]: 92.8 ± 3.98 cm
Increasing rate of brown rice weight per plant relative to control [5, 8]: 28%
Number of tillers [5, 8]: 31.4 ± 3.91
Panicle length [5, 8]: 24.0 ± 2.07 cm
number of panicles [5, 8]: 28.8 ± 4.67
aerial part weight [5, 9]: increased more than the control
number of panicles [5, 9]: increased more than the control
brown rice weight per plant ([5]; applying AOH in the topdressing stage for panicle formation or later, vs control): increased more than the control
Increasing rate of sieved brown rice relative to control ([6]; 0.5 mM AOH as basal fertilizer): 10.5%
Thousand kernel weight ([6]; 0.5 mM AOH as basal fertilizer): 23.5 ± 0.6 g
Increasing rate of sieved brown rice relative to control [6, 10]: 8.9%
Thousand kernel weight [6, 10]: 23.0 ± 0.5 g
Increasing rate of sieved brown rice relative to control [6, 11]: 7.2%
Thousand kernel weight [6, 11]: 23.4 ± 0.5 g
Increasing rate of sieved brown rice relative to control [6, 12]: 10.2%
Thousand kernel weight [6, 12]: 23.5 ± 0.3 g
Hull weight ([6]; applying AOH, vs control): increased more than the control
Sieved brown rice ([6]; applying AOH, vs control): increased more than the control
non-sieved brown rice weight ([6]; applying AOH, vs control): increased more than the control
total brown rice weight ([6]; applying AOH, vs control): increased more than the control
Hull weight [6, 13]: 288 ± 23.9 g
Non-sieved brown rice weight [6, 13]: 230 ± 19.7 g
Sieved brown rice [6, 13]: 222 ± 19.8 g
Total weight [6, 13]: 644 ± 49.5 g
Hull weight [6, 14]: 283 ± 35.0 g
Non-sieved brown rice weight [6, 14]: 227 ± 28.9 g
Sieved brown rice [6, 14]: 218 ± 29.0 g
Total weight [6, 14]: 630 ± 71.4 g
Hull weight [6, 15]: 279 ± 24.9 g
Non-sieved brown rice weight [6, 15]: 224 ± 20.9 g
Sieved brown rice [6, 15]: 215 ± 20.7 g
Total weight [6, 15]: 643 ± 54.1 g
Hull weight [6, 16]: 284 ± 24.4 g
Non-sieved brown rice weight [6, 16]: 228 ± 20.1 g
Sieved brown rice [6, 16]: 221 ± 19.5 g
Total weight [6, 16]: 638 ± 59.6 g
Extension of shoots and roots [3]: promoted extension of shoots and roots concentration-dependently
